From ChEMBL document CHEMBL1201862, “PubChem BioAssay data set” (2004) come the findings set out here.

Molecules are shown by their SMILES.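 Test compounds were applied to cells in 96-well plates for 48 hours at 5 doses. The concentration for 50% growth inhibition is given as GI50.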 Activity calls are given as the source filed them. No stated cut-off is given here; in the data, active = GI50 up to about 1.1 µM and inactive = higher. A value given as a limit tells only on which side of the number the result lay.

Some test systems named below: SNB-78; DMS-114; M19-MEL; KM-20L2; DLD-1; HOP-18; LXFL 529; XF498.
Assay in all cases: DTP human tumour cell line panel, 48 h

`COC(=O)c1c(C)oc2ccc(OC(C)=O)cc12`: the GI50 in the assay on SNB-78, in the assay with DMS-114, with M19-MEL and in the assay on KM-20L2 was > 100 µM (inactive) each time.
Regarding `CN(C)CCNC(=O)c1cccc2ccc(-c3ccc(O)cc3)nc12`, the GI50 with SNB-78 was 4.43 µM (inactive); with DMS-114, 2.08 µM (inactive); with DLD-1, 2.47 µM (inactive); in the assay with HOP-18, 2.81 µM (inactive); in the assay on M19-MEL, 1.9 µM (inactive); in the assay with KM-20L2, 6.68 µM (inactive).
Consider `CC1(Cl)CC2OC3(Br)C=CC(C)(O)C2(CC1Br)C3(C)C` (stereo unspecified), for which the GI50 in the assay with SNB-78, in the assay with DMS-114, in the assay with DLD-1, with HOP-18, with LXFL 529 and in the assay on M19-MEL was > 100 µM (inactive) each time. Further, the GI50 in the assay with KM-20L2 was > 100 µM (inactive).
Take `COc1ccc(N2C(=O)[C@H]3[C@H]4CC(C(C)(C)C)CC[C@H]4c4c(n(C)c5ccccc45)[C@H]3C2=O)cc1` (stereo partly specified): the GI50 is > 100 µM (inactive) in the assay with DMS-114; > 100 µM (inactive) with XF498; < 0.01 µM (active) in the assay on DLD-1; > 100 µM (inactive) in the assay on HOP-18; > 100 µM (inactive) in the assay on LXFL 529; < 0.01 µM (active) with M19-MEL.
Consider `S=C1OC2C3C4CC5C3C(O1)C1C5C4C21` (stereo unspecified), for which the GI50 is > 100 µM (inactive) in the assay with SNB-78; 45.6 µM (inactive) in the assay with DMS-114; > 100 µM (inactive) in the assay on DLD-1; > 100 µM (inactive) with HOP-18; > 100 µM (inactive) in the assay with LXFL 529; > 100 µM (inactive) in the assay with M19-MEL. In addition, the GI50 in the assay with KM-20L2 is > 100 µM (inactive).
As to `O=C(c1ccc(Cl)cc1)c1ccc(OCCCOc2ccc(C(=O)c3ccc(Cl)cc3)cc2)cc1`, the GI50 in the assay on DMS-114, with XF498, with DLD-1, in the assay with LXFL 529, in the assay on M19-MEL and in the assay with KM-20L2 was > 100 µM (inactive) throughout.
As to `C#Cc1cccc(N2C(=O)CC(=P(c3ccccc3)(c3ccccc3)c3ccccc3)C2=O)c1`, the GI50 was > 100 µM (inactive) with SNB-78; 19.9 µM (inactive) in the assay on DMS-114; 0.405 µM (active) in the assay with XF498; > 100 µM (inactive) in the assay on DLD-1; 11.8 µM (inactive) in the assay with LXFL 529; 42.9 µM (inactive) in the assay on M19-MEL.
`Cc1cc2c3ccccc3n(C)c2c2c1C(=O)C=CC2=O`: the GI50 in the assay with SNB-78 is 17.4 µM (inactive); with DMS-114, 6.05 µM (inactive); with XF498, 16.3 µM (inactive); with DLD-1, 12.7 µM (inactive); with LXFL 529, 3.99 µM (inactive); in the assay with M19-MEL it was 18.2 µM (inactive).
On to `CCn1cnc2c(=S)nc(N)[nH]c21`, for which the GI50 in the assay on SNB-78, in the assay with DMS-114, with DLD-1, in the assay with LXFL 529, in the assay with M19-MEL and with KM-20L2 was > 100 µM (inactive) throughout.
In the case of `CCn1c(CSc2nc(-c3ccccc3)c(-c3ccccc3)[nH]2)n[nH]c1=S`, the GI50 with SNB-78, with DMS-114, with XF498, in the assay on DLD-1, in the assay on LXFL 529 and in the assay with M19-MEL was > 100 µM (inactive) in each case. In the assay on KM-20L2, the GI50 is > 100 µM (inactive).
For the compound `CC12N=NN(c3ccc([N+](=O)[O-])cc3)C1(O)c1ccccc1C2=O` (stereo unspecified), the GI50 with DMS-114, with XF498, in the assay on LXFL 529, in the assay on M19-MEL and with KM-20L2 was > 100 µM (inactive) each time.
Take `CN(C)CCNC(=O)c1cccc2c1nc(-c1ccccn1)c1ccccc12`: the GI50 was 25.3 µM (inactive) in the assay on SNB-78; 18.3 µM (inactive) with DMS-114; 11.9 µM (inactive) in the assay with DLD-1; 21.4 µM (inactive) in the assay with HOP-18; 18.1 µM (inactive) in the assay with M19-MEL.
